Source: PubChem BioAssay (NCI)
Several values for one entry are separate records, joined by “and”; a condition that tells them apart may be missing. Identical values can stand only once.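 Grown in 96-well plates, cells were treated for 48 hours with each compound at five concentrations. Insufficient inhibition: endpoint recorded as highest concentration tested. GI50: concentration for 50% inhibition of growth. The concentration for full growth arrest is given as TGI.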 Where a SMILES comes first, the peptide text is derived from it. [ ]: non-standard residue; d: D form. Orn = NCCC[CH](N)C(=O)O

What was measured:
Test in all cases: NCI-60 cell line screen, 48 h
ACHN renal = test system: ACHN renal
DU-145 prostate = test system: DU-145 prostate
IGROV1 ovarian = test system: IGROV1 ovarian
MDA-MB-231 breast = test system: MDA-MB-231 breast
NCI/ADR-RES ovarian = test system: NCI/ADR-RES ovarian
SK-MEL-28 melanoma = test system: SK-MEL-28 melanoma
SK-MEL-5 melanoma = test system: SK-MEL-5 melanoma
SW-620 colon = test system: SW-620 colon

Compound	GI50 (ACHN renal)	TGI (ACHN renal)	GI50 (DU-145 prostate)	TGI (DU-145 prostate)	GI50 (IGROV1 ovarian)	TGI (IGROV1 ovarian)	GI50 (MDA-MB-231 breast)	TGI (MDA-MB-231 breast)	GI50 (NCI/ADR-RES ovarian)	TGI (NCI/ADR-RES ovarian)	GI50 (SK-MEL-28 melanoma) [µM]	TGI (SK-MEL-28 melanoma)	GI50 (SK-MEL-5 melanoma) [µM]	TGI (SK-MEL-5 melanoma)	GI50 (SW-620 colon)	TGI (SW-620 colon)
O=C(Nc1cccc2ccccc12)c1cc2ccccc2cc1O	2.44 µM	7.89 µM	3.84 µM	> 100 µM	1.46 µM	7.27 µM	1.77 µM	4.46 µM	2.17 µM	8.07 µM	3.58	22.4 µM	1.57	3.69 µM	2.91 µM	15 µM
Cc1ccc(S(=O)(=O)N2C/C(=C\c3cc(F)cc(F)c3)C(=O)/C(=C/c3cc(F)cc(F)c3)C2)cc1	0.232 µM	0.573 µM	0.787 µM	2.39 µM	0.371 µM	1.4 µM	0.285 µM	0.867 µM	0.447 µM	12.7 µM	0.388	1.32 µM	0.272	0.908 µM	0.0582 µM	0.283 µM
O=C(O)c1cn(C2CC2)c2cc(N3CCN(C(=O)Nc4nc(-c5ccc(Cl)cc5)cs4)CC3)c(F)cc2c1=O	1.63 µM	22 µM	2.29 µM	> 100 µM	0.815 µM	> 100 µM	3.63 µM	> 100 µM	4.21 µM	> 100 µM	0.701	> 100 µM	1.76	3.92 µM	4.7 µM	> 100 µM
C[C@H]1[C@H](C)CC[C@]2(C(=O)O)CC[C@]3(C)C(=CC[C@@H]4[C@@]5(C)CC[C@H](OC(=O)/C=C\c6ccc(O)cc6)C(C)(C)[C@@H]5CC[C@]43C)[C@H]12	2.89 µM	12.1 µM	4.07 µM	17.6 µM	15.5 µM	> 100 µM	2.55 µM	13.5 µM	3.02 µM	15 µM	18	57 µM	3.85	14.3 µM	17.6 µM	33.7 µM
CCOCC[P+](c1ccccc1)(c1ccccc1)c1ccccc1	35.8 µM	> 100 µM	27.5 µM	> 100 µM	13.5 µM	63.7 µM	22.6 µM	> 100 µM	> 100 µM	> 100 µM	16	70.6 µM	10.1	25 µM	25.2 µM	> 100 µM
COc1ccc2c(c1)N(CCC1CCCCN1C)c1ccccc1S2 (stereo not drawn)		28.1 µM		26.2 µM		26.5 µM		23.6 µM		25.4 µM		14.2 µM		24.8 µM		35.5 µM
COc1cccc(-c2cc(NCc3ccc4c(c3)OCO4)nc(N)n2)c1	0.24 µM	29.3 µM	0.125 µM	12.1 µM	0.143 µM	19.1 µM	0.228 µM	13.7 µM	0.0458 µM	0.494 µM	0.0724	19.7 µM	0.0432	3.6 µM	0.0422 µM	16.5 µM
Cc1cc(Cl)ccc1Nc1nc(C(F)(F)F)ccc1C(=O)N/N=C/c1c(Cl)cccc1Cl	0.298 µM	2.03 µM	0.548 µM	> 100 µM	0.357 µM	6.29 µM	0.249 µM		0.445 µM	> 100 µM	0.806	> 100 µM	0.573	2.44 µM	0.322 µM	> 100 µM
Cc1cc(Cl)ccc1Nc1nc(C(F)(F)F)ccc1C(=O)N/N=C/c1ccc(F)cc1	2.48 µM	10.8 µM	3.46 µM	13.8 µM	2.11 µM	13.9 µM	1.47 µM	5.94 µM	2.27 µM	19.2 µM	2.01	10.6 µM	1.58	3.13 µM	2.06 µM	13.5 µM
O=C(Nc1ncc(Cc2ccc(Cl)cc2)s1)c1ccc2c(c1)OCCO2	0.0645 µM	> 54.5 µM	0.05 µM	9.38 µM	0.126 µM	> 100 µM	0.176 µM	3.15 µM	0.0393 µM	5.58 µM	1.02	> 100 µM	0.0539	1.42 µM	0.04 µM	> 100 µM
Nc1nn(C(=O)Nc2ccc(Cc3ccccc3)cc2)c2ccccc12	1.69 µM	33.4 µM	1.02 µM	28.3 µM	6.98 µM	48.8 µM	0.847 µM	43.9 µM	7.87 µM	> 100 µM	11.5	> 100 µM	2.22	8.64 µM	3.62 µM	41.5 µM
CC(C)CC1NC(=O)C(CCCN)NC(=O)C(C(C)C)NC(=O)C2CCCN2C(=O)C(Cc2ccccc2)NC(=O)C(CC(C)C)NC(=O)C(CCCN)NC(=O)C(C(C)C)NC(=O)C2CCCN2C(=O)C(Cc2ccccc2)NC1=O (stereo not drawn) (cyclo(FPV[Orn]LFPV[Orn]L); configuration not given here)	0.0961 µM and 0.0816 µM	3.25 µM and 2.21 µM	0.0184 µM and 0.0529 µM	1.45 µM and 1.97 µM	0.18 µM and 0.228 µM	4.69 µM and 3.75 µM	0.0209 µM and 0.0242 µM	0.146 µM and 0.0877 µM	0.614 µM and 2.14 µM	5.05 µM and 13.3 µM	0.0395	0.962 µM and 1.63 µM	0.00725	0.0199 µM and 0.0229 µM	0.0123 µM and 0.0239 µM	0.422 µM and 1.17 µM
COc1ccc(OC)c2c3c(ncc12)-c1cc2c(cc1C3)OCO2	2.97 µM	> 100 µM	48.4 µM	> 100 µM	4.24 µM	> 100 µM	4.76 µM	> 100 µM	> 100 µM	> 100 µM	> 100	> 100 µM	22.1	> 100 µM	> 100 µM	> 100 µM
COc1ccc2c(c1)CC[C@@H]1[C@@H]2CC[C@]2(C)c3c(cc(C(=O)c4ccccc4)c4sccc34)C[C@@H]12	> 100 µM	> 100 µM	> 100 µM	> 100 µM	> 100 µM	> 100 µM	> 100 µM	> 100 µM	> 100 µM	> 100 µM	> 100	> 100 µM	> 100	> 100 µM	> 100 µM	> 100 µM
COc1ccc(OC)c(/C=C/c2cnnc3ccccc23)c1		> 10 µM		> 10 µM		> 10 µM		> 10 µM		7.81 µM		> 10 µM		> 10 µM		> 10 µM
O=C(Nc1cccc(-n2cc(-c3ccncc3)c(-c3ccc(O)c(Cl)c3)n2)c1)Nc1ccc(Cl)c(C(F)(F)F)c1	2.64 µM	10.9 µM	2.54 µM	7.76 µM	2.82 µM	8.12 µM	1.84 µM	7.63 µM	2.96 µM	9.03 µM	1.67	3.8 µM	1.66	3.07 µM	2.78 µM	7.62 µM
Cc1ccc(C2CC(c3cccc(Nc4ccncc4)c3)=NN2c2ccc(Cl)cc2)cc1 (stereo not drawn)	1.63 µM	2.99 µM	1.8 µM	3.21 µM	1.72 µM	3.24 µM	1.41 µM	2.78 µM	1.87 µM	3.88 µM	1.83	3.32 µM	1.76	3.16 µM	1.55 µM	3.04 µM
CCCNNC(=O)c1ccc(CNC(=O)/C=C/c2ccccc2)cc1	0.143 µM	0.592 µM	0.218 µM	> 100 µM	0.185 µM	1.1 µM	0.348 µM	> 100 µM	0.111 µM		0.146	0.857 µM	0.102	0.262 µM	0.125 µM	1.06 µM
CCNCCNc1cc(C2CCCC2)c(C#N)c2nc3ccccc3n12	1.91 µM	4 µM	3.71 µM	13.8 µM	3.5 µM	16 µM	2.37 µM	5.27 µM	4.55 µM	19 µM	1.84	3.68 µM	1.75	3.31 µM	2.82 µM	13.2 µM
Cc1ccc(S(=O)(=O)C2=C3C(=C(c4ccccc4)c4ccccc43)CN(S(=O)(=O)c3ccc(C)cc3)C2)cc1	4.52 µM	19.3 µM	11.8 µM	> 100 µM	5.36 µM	62.6 µM	2.9 µM	11.1 µM	2.98 µM	90.7 µM	15	52.3 µM	5.04	18.3 µM	0.636 µM	3.4 µM
COc1ccc2oc(-c3ccc(Cl)cc3)c(N3CCN(C)CC3)c2c1	1.73 µM	3.7 µM	1.88 µM	3.98 µM	1.05 µM	2.69 µM	1.64 µM	3.27 µM	2.19 µM	5.46 µM	1.62	3.08 µM	1.58	3.06 µM	1.82 µM	3.48 µM
